# Marks after values point to notes of the source that are not given here.
# Columns and labels:
# Type in all cases: cell-based, human
# FAK = test: Thrombin induced FAK phosphorylation at autophosphorylation site Tyr397 in HUVEC (immunoprecipitation / western blot); details: substance alone, compound 50 μg/ml, thrombin 1 U/ml
# Protocol: For measuring the inhibition of thrombin meditated FAK phosphorylation in HUVECs, the cells are incubated under suitable conditions with a suitable amount of thrombin with and without the test compound for various periods of time up to 60 min and lysed afterwards lysates were subjected to SDS-PAGE and western blot analysis with site-specific antibodies directed against FAK phosphorylated tyrosine residues.
# HUVEC were incubated with FX06 (50 μg/ml), Thrombin (1 U/ml, Sigma Aldrich) and Thrombin/test compound for indicated time points. After washing with ice cold PBS (GIBCO), cells were scrapped in Tris-lysis buffer (plus 1% Triton X (Bio-Rad), NP40 (Sigma Aldrich) and proteinase and phosphatase inhibitory cocktails (Sigma Aldrich)) from culture flasks and lysed for 20 min on ice. Lysates were heavily vortexed every 5 min. After lysis lysates were centrifuged (15.000 rpm/10 min/4° C.) and supernatants were added to 50 μl sepahrose beads (Sigma Aldrich) preincubated with 1 μg total FAK antibody (BD Transduction Laboratories). Beads were agitated on the wheel for 2 h at 4° C., followed by 3 times washing with ice cold PBS, the addition of 2× sample buffer and incubation at 95° C. for 5 min. The sample buffer was then removed from the beads and applied to western blotting.
# 10% polyacrylamide gels were run for separating precipitated proteins. Gels were blotted onto PVDF (Bio-Rad) membranes using the hoefer semi dry blotting system. Membranes were then washed with TBS/0.5% TWEEN (TBST), blocked with 1% BSA/TBST for 1 h at RT and then incubated with the p397 FAK antibody (0.2 μg/ml; BD Transduction Laboratories) in 1% BSA/TBST over night at 4° C. For detection, a HRP-labeled goat anti-mouse Ab (1:25 000; Bio-Rad) in TBST was used and bound Abs were visualized by chemiluminescence (ECL-system, Amersham Corp., Arlington Heights, Ill.) and recorded on film.
# RhoA = test: Thrombin induced RhoA activation pull-down assay in HUVEC; details: substance alone, thrombin 5 U/ml
# From the text: (§1) The useful methods of analysing the activation status of Rac1 and RhoA are based on the principle of the so-called pull down assay. In this format, the GTP-bound active state of the respective protein in a cell lysate is bound to an immobilized binding partner and detected with a monoclonal antibody (MAb) specifically directed against the protein in question. The amount of the GTP-bound active state can subsequently be quantified through suitable detection methods, including but not limited to Western blotting or luminescence detection.
# The lysate is added to a suitably immobilized rhotekin-binding domain (RBD) and the signal measured with an appropriate detection method.
# HUVEC are grown to confluence under standard conditions. Before induction of Rho activity HUVEC were starved for 4 h by using IMDM (Gibco) without growth factor and serum supplements. After the starvation period 5 U/ml Thrombin (Calbiochem) or 5 U thrombin plus 50 μg/ml of test compound are added to the starvation medium for 1, 5 and 10 min. Active RhoA was isolated using Rho Assay Reagent from Upstate according to manufactures instructions. Isolates were separated on a 15% polyacrylamid gel and blotted on Nitrocellulose-Membrane (Bio-Rad). RhoA was detected by using Anti-Rho (-A, -B, -C), clone55 from Upstate (1:500).
# Rac1 = Rac1 activation pull-down assay in HUVECs; details: HUVEC, substance alone, test compound 50 μg/ml
# From the text: as §1
# The lysate is added to a suitably immobilized p21-binding domain (PBD) of p21-activated protein kinase (PAK) and the amount of activated Rac1 is quantified with a Rac1-specific MAb.
# HUVECs are grown to confluence under standard conditions. Before induction of Rac1 activity HUVECs were starved for 4 h by using IMDM (Gibco) without growth factor and serum supplements. Rac1 activity is induced by adding 50 μg/ml of test compound into starvation medium for 1, 5 and 10 min. Active Rac1 was isolated using Rac1/Cdc42 Assay Reagent from Upstate according to manufactures instructions. Isolates were separated on a 15% polyacrylamid gel and blotted on Nitrocellulose-Membranes (Bio-Rad). Rac1 was detected by using Anti-Rac1 clone23A8, anti-mouse from Upstate (1:250).
substance,measurement,setting,value
thrombin,"FAK phosphorylation (p397), relative values compared to unstimulated control",FAK; 1 min,4.5 +/− 0.2*
same,"FAK phosphorylation (p397), relative values compared to unstimulated control",FAK; 5 min,4.5 +/− 0.2*
same,"FAK phosphorylation (p397), relative values compared to unstimulated control",FAK; 10 min,3.8 +/− 0.1*
same,"Active RhoA, relative values compared to unstimulated control",RhoA; 1 min,2.5 +/− 0.2*
same,"Active RhoA, relative values compared to unstimulated control",RhoA; 5 min,2.5 +/− 0.2*
same,"Active RhoA, relative values compared to unstimulated control",RhoA; 10 min,1 +/− 0.2
same,"Active Rac1, relative values compared to unstimulated control",Rac1; 1 min,0.5 +/− 0.2*
same,"Active Rac1, relative values compared to unstimulated control",Rac1; 5 min,0.5 +/− 0.2*
same,"Active Rac1, relative values compared to unstimulated control",Rac1; 10 min,1 +/− 0.1

# — patent US20090081192A1, “METHODS OF SCREENING FOR COMPOUNDS HAVING ANTI-INFLAMMATORY ACTIVITY” (FIBREX MEDICAL RESEARCH & DEVELOPMENT GMBH, priority 2007, published 2009)
